From paper PMC12432435, “Not only an inhibitor: Trehalose enhances the catalytic action exerted on oxaloacetate by rabbit lactate dehydrogenase” (Protein Science : A Publication of the Protein Society, 2025)

Assays:
[1] = target: T1, rabbit muscle lactate dehydrogenase (rbLDH, LDH-A) (Oryctolagus cuniculus, UniProt P13491); test: stopped-flow tryptophan fluorescence quenching of the rbLDH•β-NADH complex; format: binding
T1 construct: gene LDHA; tetrameric enzyme from rabbit skeletal muscle

[2] = target: T1, rabbit muscle lactate dehydrogenase (rbLDH, LDH-A); test: stopped-flow tryptophan fluorescence quenching (FRET), association and dissociation kinetics; format: binding; conditions: read-out: stopped-flow tryptophan fluorescence quenching (FRET), association and dissociat

## NC(=O)C(=O)O [oxamate]
[1]
  Control / k obs: 642 ± 19 s⁻¹

## NC(=O)C1=CN([C@@H]2O[C@H](COP(=O)(O)OP(=O)(O)OC[C@H]3O[C@@H](n4cnc5c(N)ncnc54)[C@H](O)[C@@H]3O)[C@@H](O)[C@H]2O)C=CC1 [β-NADH]
[2]
  kon: 1.17e+08 M⁻¹ s⁻¹
